Reference: patent US10544132B2, “Isoindolinone inhibitors of the MDM2-p53 interaction having anticancer activity” (ASTEX THERAPEUTICS LIMITED, priority 2015, dated 2020)

Assays:
[1] = tested on: SN40R2 cells; assay: SN40R2 growth inhibition, sulphorhodamine B (SRB) method (Protocol A); conditions: 72 h, read-out: SN40R2 IC50 (μM) (Protocol A)
[2] = tested on: SJSA-1 cells; assay: SJSA-1 growth inhibition, sulphorhodamine B (SRB) method (Protocol A); conditions: Homo sapiens, SJSA-1, 72 h, read-out: SJSA-1 IC50 (μM) (Protocol A)
[3] = molecular target: MDM2-p53 interaction (Homo sapiens (Human), UniProt Q00987); assay: MDM2-p53 interaction 96-well plate binding assay (ELISA)
MDM2-p53 interaction, sequence (Q00987 whole entry): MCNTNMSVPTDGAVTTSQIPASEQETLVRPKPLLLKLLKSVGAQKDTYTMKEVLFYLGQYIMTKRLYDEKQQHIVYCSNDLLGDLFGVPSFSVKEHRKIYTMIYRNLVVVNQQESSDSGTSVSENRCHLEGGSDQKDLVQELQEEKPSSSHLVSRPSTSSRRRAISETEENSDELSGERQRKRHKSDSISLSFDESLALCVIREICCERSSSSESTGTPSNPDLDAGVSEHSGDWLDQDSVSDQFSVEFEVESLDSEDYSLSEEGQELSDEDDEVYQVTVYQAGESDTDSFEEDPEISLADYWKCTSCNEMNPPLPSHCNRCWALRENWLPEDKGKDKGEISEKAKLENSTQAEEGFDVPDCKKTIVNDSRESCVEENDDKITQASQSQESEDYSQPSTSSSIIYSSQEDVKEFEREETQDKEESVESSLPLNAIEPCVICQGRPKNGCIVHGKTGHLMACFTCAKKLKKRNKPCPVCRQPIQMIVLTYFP

IC50 [2] [µM]	IC50 [3] [nM]	SMILES	IC50 [1] [µM]
–	–	CC(C)(O)c1cc(F)c2c(c1)C(=O)N(Cc1ccc(Cl)cc1)[C@@]2(OCC1(CO)CC1)c1ccc(Cl)cc1 [Example 2, (3R)-3-(4-chlorophenyl)-2-[(4-chlorophenyl)methyl]-4-fluoro-3-{[1-(hydroxymethyl)cyclopropyl]methoxy}-6-(2-hydroxypropan-2-yl)-2,3-dihydro-1H-isoindol-1-one]	17
0.078	1.9	[2H]C([2H])(O)C1(C([2H])([2H])O[C@]2(c3ccc(Cl)cc3)c3ccc(C(C)(C)O)cc3C(=O)N2Cc2ccc(Cl)cc2S(C)(=O)=O)CC1 [Example 36, (3R)-2-[(4-chloro-2-methanesulfonylphenyl)methyl]-3-(4-chlorophenyl)-3-({1-[hydroxy(^2H2)methyl]cyclopropyl}(^2H2)methoxy)-6-(2-hydroxypropan-2-yl)-2,3-dihydro-1H-isoindol-1-one]	17
